Test results reported in PubChem BioAssay AID2060912 (Molecular Pharmacology Branch, DTP, NCI, 2025).
pIC50: −log10 of the molar value.

Test system: HUVEC/MSC spheroids viability
Test: Human HUVEC/MSC cell line growth inhibition [KRAS2];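 as to viability, T/C: percent of DMSO vehicle control luminescence so 100% = untreated viability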
Conditions: for pIC50: curve of first compound; for viability, T/C: stronger effect = lower value
Outline: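 Concentration ranges start near each agent's clinical Cmax, or at 10 microM if none is established, and fall by half-log increments. These ranges are tested as single agents and combinations on endothelial/mesenchymal stem cell spheroids lacking tumour cells.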

[1] = second compound 0.0316 µM, first compound 0.0316 µM
[2] = second compound 0.0316 µM, first compound 0.1 µM
[3] = second compound 0.0316 µM, first compound 0.316 µM
[4] = second compound 0.0316 µM, first compound 1 µM
[5] = second compound 0.0316 µM, first compound 3.16 µM
[6] = second compound 0.0316 µM, first compound 10 µM
[7] = second compound 0.1 µM, first compound 0.0316 µM
[8] = second compound 0.1 µM, first compound 0.1 µM
[9] = second compound 0.1 µM, first compound 0.316 µM
[10] = second compound 0.1 µM, first compound 1 µM
[11] = second compound 0.1 µM, first compound 3.16 µM
[12] = second compound 0.1 µM, first compound 10 µM
[13] = second compound 0.316 µM, first compound 0.0316 µM
[14] = second compound 0.316 µM, first compound 0.1 µM
[15] = second compound 0.316 µM, first compound 0.316 µM
[16] = second compound 0.316 µM, first compound 1 µM
[17] = second compound 0.316 µM, first compound 3.16 µM
[18] = second compound 0.316 µM, first compound 10 µM
[19] = second compound 1 µM, first compound 0.0316 µM
[20] = second compound 1 µM, first compound 0.1 µM
[21] = second compound 1 µM, first compound 0.316 µM
[22] = second compound 1 µM, first compound 1 µM
[23] = second compound 1 µM, first compound 3.16 µM
[24] = second compound 1 µM, first compound 10 µM
[25] = second compound 3.16 µM, first compound 0.0316 µM
[26] = second compound 3.16 µM, first compound 0.1 µM
[27] = second compound 3.16 µM, first compound 0.316 µM
[28] = second compound 3.16 µM, first compound 1 µM
[29] = second compound 3.16 µM, first compound 3.16 µM
[30] = second compound 3.16 µM, first compound 10 µM
[31] = second compound 10 µM, first compound 0.0316 µM
[32] = second compound 10 µM, first compound 0.1 µM
[33] = second compound 10 µM, first compound 0.316 µM
[34] = second compound 10 µM, first compound 1 µM
[35] = second compound 10 µM, first compound 3.16 µM
[36] = second compound 10 µM, first compound 10 µM

Compound: CC1OCC2(CCN(c3cnc(Sc4ccnc(N)c4Cl)c(N)n3)CC2)C1N (stereo unspecified) + C=CC(=O)N1CCN(c2nc(=O)n(-c3c(C)ccnc3C(C)C)c3nc(-c4c(O)cccc4F)c(F)cc23)C(C)C1
- pIC50 (second compound 0.0316 µM): < 5.00
- pIC50 (second compound 0.1 µM): < 5.00
- pIC50 (second compound 0.316 µM): < 5.00
- pIC50 (second compound 1 µM): < 5.00
- pIC50 (second compound 3.16 µM): < 5.00
- pIC50 (second compound 10 µM): < 5.00
- viability, T/C [1]: 118%
- viability, T/C [2]: 101%
- viability, T/C [3]: 105%
- viability, T/C [4]: 80.5%
- viability, T/C [5]: 70.1%
- viability, T/C [6]: 70.5%
- viability, T/C [7]: 110%
- viability, T/C [8]: 107%
- viability, T/C [9]: 97.2%
- viability, T/C [10]: 84.3%
- viability, T/C [11]: 72%
- viability, T/C [12]: 67.9%
- viability, T/C [13]: 96.8%
- viability, T/C [14]: 129%
- viability, T/C [15]: 92.1%
- viability, T/C [16]: 88%
- viability, T/C [17]: 81.8%
- viability, T/C [18]: 78.5%
- viability, T/C [19]: 101%
- viability, T/C [20]: 126%
- viability, T/C [21]: 105%
- viability, T/C [22]: 99.7%
- viability, T/C [23]: 89%
- viability, T/C [24]: 77.5%
- viability, T/C [25]: 116%
- viability, T/C [26]: 136%
- viability, T/C [27]: 111%
- viability, T/C [28]: 92.7%
- viability, T/C [29]: 109%
- viability, T/C [30]: 71.3%
- viability, T/C [31]: 104%
- viability, T/C [32]: 121%
- viability, T/C [33]: 120%
- viability, T/C [34]: 98.3%
- viability, T/C [35]: 95.5%
- viability, T/C [36]: 54.7%

Compound: Cn1nccc1Nc1nccc(-c2cc3c(s2)C(C)(C)N(CCN2CCOCC2)C3=O)n1 + C=CC(=O)N1CCN(c2nc(=O)n(-c3c(C)ccnc3C(C)C)c3nc(-c4c(O)cccc4F)c(F)cc23)C(C)C1
- pIC50 (second compound 0.0316 µM): 5.53
- pIC50 (second compound 0.1 µM): 5.58
- pIC50 (second compound 0.316 µM): 5.57
- pIC50 (second compound 1 µM): 5.51
- pIC50 (second compound 3.16 µM): 5.58
- pIC50 (second compound 10 µM): 5.59
- viability, T/C [1]: 86.7%
- viability, T/C [2]: 102%
- viability, T/C [3]: 112%
- viability, T/C [4]: 93.3%
- viability, T/C [5]: 47.7%
- viability, T/C [6]: 5.76%
- viability, T/C [7]: 105%
- viability, T/C [8]: 108%
- viability, T/C [9]: 105%
- viability, T/C [10]: 93.4%
- viability, T/C [11]: 42.1%
- viability, T/C [12]: 9.02%
- viability, T/C [13]: 99.2%
- viability, T/C [14]: 114%
- viability, T/C [15]: 98.6%
- viability, T/C [16]: 99.6%
- viability, T/C [17]: 42.2%
- viability, T/C [18]: 5.77%
- viability, T/C [19]: 99.8%
- viability, T/C [20]: 118%
- viability, T/C [21]: 129%
- viability, T/C [22]: 90.2%
- viability, T/C [23]: 51.1%
- viability, T/C [24]: 4.48%
- viability, T/C [25]: 115%
- viability, T/C [26]: 129%
- viability, T/C [27]: 112%
- viability, T/C [28]: 84%
- viability, T/C [29]: 45.3%
- viability, T/C [30]: 4.12%
- viability, T/C [31]: 150%
- viability, T/C [32]: 128%
- viability, T/C [33]: 135%
- viability, T/C [34]: 106%
- viability, T/C [35]: 37%
- viability, T/C [36]: 3.03%

Compound: CC(=O)OC12COC1CC(O)C1(C)C(=O)C(O)C3=C(C)C(OC(=O)C(O)C(NC(=O)OC(C)(C)C)c4ccccc4)CC(O)(C(OC(=O)c4ccccc4)C21)C3(C)C (stereo unspecified) + C=CC(=O)N1CCN(c2nc(OCC3CCCN3C)nc3c2CCN(c2cccc4cccc(C)c24)C3)CC1CC#N
- pIC50 (second compound 0.00949 µM): > 8.02
- pIC50 (second compound 0.03 µM): > 8.02
- pIC50 (second compound 0.0949 µM): > 8.02
- pIC50 (second compound 0.3 µM): > 8.02
- pIC50 (second compound 0.949 µM): > 8.02
- pIC50 (second compound 3 µM): < 5.52
- viability, T/C (second compound 0.00949 µM, first compound 0.00949 µM): 48.9%
- viability, T/C (second compound 0.00949 µM, first compound 0.03 µM): 42.7%
- viability, T/C (second compound 0.00949 µM, first compound 0.0949 µM): 47.8%
- viability, T/C (second compound 0.00949 µM, first compound 0.3 µM): 47%
- viability, T/C (second compound 0.00949 µM, first compound 0.949 µM): 47.8%
- viability, T/C (second compound 0.00949 µM, first compound 3 µM): 58%
- viability, T/C (second compound 0.03 µM, first compound 0.00949 µM): 44.7%
- viability, T/C (second compound 0.03 µM, first compound 0.03 µM): 40.9%
- viability, T/C (second compound 0.03 µM, first compound 0.0949 µM): 38%
- viability, T/C (second compound 0.03 µM, first compound 0.3 µM): 48.1%
- viability, T/C (second compound 0.03 µM, first compound 0.949 µM): 47.1%
- viability, T/C (second compound 0.03 µM, first compound 3 µM): 49.4%
- viability, T/C (second compound 0.0949 µM, first compound 0.00949 µM): 44.3%
- viability, T/C (second compound 0.0949 µM, first compound 0.03 µM): 42.1%
- viability, T/C (second compound 0.0949 µM, first compound 0.0949 µM): 41.6%
- viability, T/C (second compound 0.0949 µM, first compound 0.3 µM): 40.4%
- viability, T/C (second compound 0.0949 µM, first compound 0.949 µM): 45.1%
- viability, T/C (second compound 0.0949 µM, first compound 3 µM): 48.3%
- viability, T/C (second compound 0.3 µM, first compound 0.00949 µM): 40.4%
- viability, T/C (second compound 0.3 µM, first compound 0.03 µM): 49.7%
- viability, T/C (second compound 0.3 µM, first compound 0.0949 µM): 45%
- viability, T/C (second compound 0.3 µM, first compound 0.3 µM): 34.3%
- viability, T/C (second compound 0.3 µM, first compound 0.949 µM): 48.1%
- viability, T/C (second compound 0.3 µM, first compound 3 µM): 55%
- viability, T/C (second compound 0.949 µM, first compound 0.00949 µM): 44.7%
- viability, T/C (second compound 0.949 µM, first compound 0.03 µM): 48.3%
- viability, T/C (second compound 0.949 µM, first compound 0.0949 µM): 50.5%
- viability, T/C (second compound 0.949 µM, first compound 0.3 µM): 44.5%
- viability, T/C (second compound 0.949 µM, first compound 0.949 µM): 63.9%
- viability, T/C (second compound 0.949 µM, first compound 3 µM): 51.5%
- viability, T/C (second compound 3 µM, first compound 0.00949 µM): 82.6%
- viability, T/C (second compound 3 µM, first compound 0.03 µM): 76.2%
- viability, T/C (second compound 3 µM, first compound 0.0949 µM): 75.6%
- viability, T/C (second compound 3 µM, first compound 0.3 µM): 62.6%
- viability, T/C (second compound 3 µM, first compound 0.949 µM): 67.5%
- viability, T/C (second compound 3 µM, first compound 3 µM): 90.5%
